IC50 data for six compounds are collected here from BindingDB's records for doi:10.1016/j.bmcl.2009.04.143 (Incyte, 2009).

The structures appear in SMILES notation.

The nature of the test: Inhibition of HER2 extracellular domain sheddase activity in human BT474 cells after 72 hrs by ELISA. (In an ELISA, binding on a coated surface is turned into a signal by an enzyme label.)
Consider `O=C(NO)[C@H]1CC2(CC[C@@H]1C(=O)N1CCN(c3ccccc3)CC1)CC2` [(5S,6S)-N-hydroxy-6-(4-phenylpiperazine-1-carbonyl)spiro[2.5]octane-5-carboxamide], for which the IC50 came to 100 nM.
In the case of `O=C(NO)[C@H]1CC(CC(=O)N2CC[C@@H](O)C2)CC[C@@H]1C(=O)N1CCN(c2ccccc2)CC1` (mixture of isomers) [(1S,2S,5RS)-N-hydroxy-5-(2-((R)-3-hydroxypyrrolidin-1-yl)-2-oxoethyl)-2-(4-phenylpiperazine-1-carbonyl)cyclohexanecarboxamide], it took 226 nM to reach half-maximal inhibition (IC50). Against the preceding compound, the IC50 is about 2.3-fold higher.
In the case of `CN1CCN(C(=O)CC2CC[C@H](C(=O)N3CCN(c4ccccc4)CC3)[C@@H](C(=O)NO)C2)CC1` (mixture of isomers) [(1S,2S,5RS)-N-hydroxy-5-(2-(4-methylpiperazin-1-yl)-2-oxoethyl)-2-(4-phenylpiperazine-1-carbonyl)cyclohexanecarboxamide] it was 100 nM; in that of `O=C(NO)[C@H]1CC(CC(=O)N2CCCC2)CN[C@@H]1C(=O)N1CCN(c2ccccc2)CC1` (mixture of isomers) [(2S,3S,5RS)-N-hydroxy-5-(2-oxo-2-(pyrrolidin-1-yl)ethyl)-2-(4-phenylpiperazine-1-carbonyl)piperidine-3-carboxamide], 28 nM; in that of `O=C(NO)[C@H]1CC(CC(=O)N2CCOCC2)CC[C@@H]1C(=O)N1CCN(c2ccccc2)CC1` (mixture of isomers) [(1S,2S,5RS)-N-hydroxy-5-(2-morpholino-2-oxoethyl)-2-(4-phenylpiperazine-1-carbonyl)cyclohexanecarboxamide], 208 nM.
On to `CN1CC(CC(=O)N2CCCCC2)C[C@H](C(=O)NO)[C@H]1C(=O)N1CCN(c2ccccc2)CC1` (mixture of isomers) [(2S,3S,5RS)-N-hydroxy-1-methyl-5-(2-oxo-2-(piperidin-1-yl)ethyl)-2-(4-phenylpiperazine-1-carbonyl)piperidine-3-carboxamide], for which 102 nM corresponded to half-maximal inhibition (IC50).

The IC50 is the concentration that gives 50% inhibition. Low values mean greater potency, high ones weaker potency.
